Reference: the NIST ThermoML archive (doi:10.1021/je9002515)

Assay: xn = mol fraction of the nth substance listed
Settings: 101 kPa, Liquid, Alternating current cell with electrodes

CNC(C)=O [N-methylacetamide] + CC(=O)N(C)C
electrical conductivity [S/m]
Settings	303.15 K	313.15 K	323.15 K	333.15 K	343.15 K	353.15 K	363.15 K	373.15 K	383.15 K	393.15 K
x1 = 0.1041	0.0107	0.0131	0.0151	0.0175	0.0202	0.0234	0.0269	0.0305	0.0344	0.0396
x1 = 0.2077	0.0173	0.0201	0.023	0.0261	0.0299	0.0349	0.0413	0.049	0.0567	0.0641
x1 = 0.3056	0.0162	0.0192	0.0229	0.0273	0.0331	0.0403	0.0495	0.06	0.0708	0.081
x1 = 0.4019	0.0203	0.0241	0.0285	0.0335	0.0394	0.0464	0.0548	0.0646	0.075	0.0851
x1 = 0.506	0.0239	0.0287	0.034	0.0397	0.0459	0.0532	0.0619	0.0714	0.0813	0.0907
x1 = 0.6088	0.0215	0.0262	0.0315	0.0373	0.0436	0.051	0.0597	0.0702	0.0816	0.0934
x1 = 0.6985	0.0328	0.04	0.0485	0.0584	0.0688	0.0798	0.0922	0.106	0.119	0.131
x1 = 0.7974	0.0314	0.039	0.0477	0.0571	0.0666	0.076	0.0854	0.0948	0.105	0.118
x1 = 0.9001	0.0329	0.0421	0.0528	0.0645	0.0778	0.0929	0.11	0.127	0.146	0.167
x1 = 1	0.0324	0.0447	0.0614	0.0775	0.105	0.129	0.165	0.192	0.219	0.247
